# Patent US20230085307A1, “PYRIDAZINONE COMPOUND AND HERBICIDE” (NISSAN CHEMICAL CORPORATION, priority 2019, published 2023)
# Legend:
# [1] = test system: corn; assay: Test Example 5: effect on crop by foliage application, plastic box (Table 20, symbol c); assay type: in vivo; settings: 320 g/ha, evaluated three weeks after application
# How it was run: (§1)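 Post-emergence foliar test in sterilized diluvial soil. Compound applied as water-diluted emulsion at a predetermined rate to 14-day-old plants; evaluation at three weeks.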
# [2] = test system: corn; assay: Test Example 4: effect on crop by soil treatment (Table 19, symbol c); assay type: in vivo; settings: 320 g/ha
# How it was run: (§2)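 Emulsion of test compound, water-diluted to predetermined amount, sprayed on soil after sowing (seed depth ~1.5 cm, sterilized diluvial soil). Greenhouse, 25–30° C. Effect graded at three weeks post-spray.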
# [3] = test system: directly sowed rice; assay: Test Example 3: effect on crop by foliage application, Wagner pot (Table 18, symbol b); assay type: in vivo; settings: 320 g/ha
# How it was run: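 Plants were sown in alluvial soil held under 0.1–0.5 cm standing water and grown 14 days in a greenhouse at 25–30 °C. An emulsifiable formulation, water-diluted to the set dose, was then sprayed onto the foliage, and effects were scored three weeks later using previously defined criteria.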
# [4] = test system: soybean; assay: Test Example 4: effect on crop by soil treatment (Table 19, symbol d); assay type: in vivo; settings: 320 g/ha
# How it was run: as §2
# [5] = test system: transplanted rice; assay: Test Example 1: effect on crop, application before weed generation under submerged conditions (Table 16, symbol a); assay type: in vivo; settings: 320 g/ha applied herbicide
# How it was run: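 Submerged Wagner pots (alluvial soil, 4 cm water) sown with weed seeds and planted with 2.5-leaf rice seedlings; emulsifiable concentrate diluted in water applied to water surface on sowing day. Held in greenhouse at 25-30 °C; injury scored 0-5 by herbicidal rate after three weeks.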
# [6] = test system: false cleavers; assay: Test Example 4: herbicidal effect by soil treatment (Table 19, symbol Q); assay type: in vivo, false cleavers (Galium spurium); settings: 320 g/ha
# How it was run: as §2
# [7] = test system: rapeseed; assay: Test Example 5: effect on crop by foliage application, plastic box (Table 20, symbol g); assay type: in vivo; settings: 320 g/ha, evaluated three weeks after application
# How it was run: as §1
# [8] = test system: beet; assay: Test Example 4: effect on crop by soil treatment (Table 19, symbol f); assay type: in vivo; settings: 320 g/ha
# How it was run: as §2
# [9] = test system: soybean; assay: Test Example 5: effect on crop by foliage application, plastic box (Table 20, symbol d); assay type: in vivo; settings: 320 g/ha, evaluated three weeks after application
# How it was run: as §1
# [10] = test system: beet; assay: Test Example 5: effect on crop by foliage application, plastic box (Table 20, symbol f); assay type: in vivo; settings: 320 g/ha, evaluated three weeks after application
# How it was run: as §1
# [11] = test system: wheat; assay: Test Example 4: effect on crop by soil treatment (Table 19, symbol e); assay type: in vivo; settings: 320 g/ha
# How it was run: as §2
# [12] = test system: wheat; assay: Test Example 5: effect on crop by foliage application, plastic box (Table 20, symbol e); assay type: in vivo; settings: 320 g/ha, evaluated three weeks after application
# How it was run: as §1
# [13] = test system: rapeseed; assay: Test Example 4: effect on crop by soil treatment (Table 19, symbol g); assay type: in vivo; settings: 320 g/ha
# How it was run: as §2
# [14] = test system: false cleavers; assay: Test Example 5: herbicidal effect by foliage application, plastic box (Table 20, symbol Q); assay type: in vivo, false cleavers (Galium spurium); settings: foliage application, 320 g/ha, evaluated three weeks after application
# How it was run: as §1
smiles,measurement,setting,value
"COc1cc(F)ccc1-c1sc2ccc(Cl)cc2c1-c1c(O)c(C)nn(C)c1=O [Compound No. 2-095, 4-(5-chloro-2-(4-fluoro-2-methoxyphenyl)benzo[b]thiophen-3-yl)-5-hydroxy-2,6-dimethylpyridazin-3(2H)-one]","effect on crop, c: corn",[1],1 (Herbicidal rate of 5% or more and less than 20%)
same,"effect rating on crop, c: corn",[2],0 (Herbicidal rate of 5% or less (almost no effect))
same,"effect on crop b (directly sowed rice), rating 0-5",[3],1 (Herbicidal rate of 5% or more and less than 20%)
same,"effect rating on crop, d: soybean",[4],0 (Herbicidal rate of 5% or less (almost no effect))
same,Effect on crop a: transplanted rice (grade 0-5),[5],0 (Herbicidal rate of 5% or less (almost no effect))
same,"herbicidal effect rating, Q: false cleavers",[6],4 (Herbicidal rate of 70% or more and less than 90%)
same,melting point,,221 to 223 °C
same,"effect on crop, g: rapeseed",[7],5 (Herbicidal rate of 90% or more (almost completely withered))
same,"effect rating on crop, f: beet",[8],4 (Herbicidal rate of 70% or more and less than 90%)
same,"effect on crop, d: soybean",[9],4 (Herbicidal rate of 70% or more and less than 90%)
same,"effect on crop, f: beet",[10],5 (Herbicidal rate of 90% or more (almost completely withered))
same,"effect rating on crop, e: wheat",[11],0 (Herbicidal rate of 5% or less (almost no effect))
same,"effect on crop, e: wheat",[12],1 (Herbicidal rate of 5% or more and less than 20%)
same,"effect rating on crop, g: rapeseed",[13],1 (Herbicidal rate of 5% or more and less than 20%)
same,herbicidal effect on Q: false cleavers,[14],5 (Herbicidal rate of 90% or more (almost completely withered))
